# Experimental data taken from patent US12156523B2 (priority 2017, dated 2024).
# Tested on: Pyricularia oryzae
# Assay: whole plant or invertebrate
# Type: in vivo
# Conditions: soil, read-out: Control value (number of lesions at the second leaf)
row,SMILES,pest or weed control at 10 µg/mL [%]
1,CC(C)Oc1cccc(N(C)C(=O)c2cc(F)nc(F)c2F)c1 [Example 1-1],≥ 80
2,CN(C(=O)c1cc(F)nc(F)c1F)c1ccccc1 [Example 1-2],≥ 80
3,O=C(Nc1c(F)c(F)c(C(F)(F)F)c(F)c1F)c1cc(F)nc(F)c1F [Example 1-4],≥ 80
4,O=C(Nc1cccc(Cl)c1Cl)c1cc(F)nc(F)c1F [Example 1-5],≥ 80
5,Cc1cccc(C)c1NC(=O)c1cc(F)nc(F)c1F [Example 1-7],≥ 80
6,O=C(Nc1ccc2c(c1)OCCO2)c1cc(F)nc(F)c1F [Example 1-9],≥ 80
7,O=C(NC1=NCCS1)c1cc(F)nc(F)c1F [Example 1-12],≥ 80
8,Cc1ccccc1NC(=O)c1cc(F)nc(F)c1F [Example 1-14],≥ 80
9,O=C(Nc1cnccn1)c1cc(F)nc(F)c1F [Example 1-15],≥ 80
10,O=C(Nc1ccccn1)c1cc(F)nc(F)c1F [Example 1-16],≥ 80
11,O=C(Nc1ncccn1)c1cc(F)nc(F)c1F [Example 1-17],≥ 80
12,COc1cc(NC(=O)c2cc(F)nc(F)c2F)cc(OC)c1OC [Example 1-20],≥ 80
13,O=C(Nc1ccc(F)c(F)c1)c1cc(F)nc(F)c1F [Example 1-21],≥ 80
14,COc1ccc(NC(=O)c2cc(F)nc(F)c2F)cc1OC [Example 1-22],≥ 80
15,O=C(Nc1cc(Cl)cc(Cl)c1)c1cc(F)nc(F)c1F [Example 1-24],≥ 80
16,COc1cc(NC(=O)c2cc(F)nc(F)c2F)cc(OC)c1 [Example 1-25],≥ 80
17,Cc1cc(C)cc(NC(=O)c2cc(F)nc(F)c2F)c1 [Example 1-26],≥ 80
18,O=C(Nc1cccc(Cc2ccccc2)c1)c1cc(F)nc(F)c1F [Example 1-27],≥ 80
19,Cc1ccc(NC(=O)c2cc(F)nc(F)c2F)cc1Br [Example 1-28],≥ 80
20,O=C(Nc1ccc(F)c(Cl)c1)c1cc(F)nc(F)c1F [Example 1-29],≥ 80
21,N#Cc1ccccc1NC(=O)c1cc(F)nc(F)c1F [Example 1-35],≥ 80
22,CCOC(=O)c1cccc(NC(=O)c2cc(F)nc(F)c2F)c1 [Example 1-37],≥ 80
23,Cc1ccc(NC(=O)c2cc(F)nc(F)c2F)cc1F [Example 1-39],≥ 80

row,SMILES,pest or weed control at 10 µg/mL [%]
1,Cc1ccc(NC(=O)c2cc(F)nc(F)c2F)cc1I [Example 1-40],≥ 80
2,Cc1cccc(NC(=O)c2cc(F)nc(F)c2F)c1 [Example 1-46],≥ 80
3,O=C(Nc1cccc(Oc2ccccc2)c1)c1cc(F)nc(F)c1F [Example 1-47],≥ 80
4,O=C(Nc1cccnn1)c1cc(F)nc(F)c1F [Example 1-48],≥ 80
5,CC(C)(C)Oc1cccc(NC(=O)c2cc(F)nc(F)c2F)c1 [Example 1-50],≥ 80
6,O=C(Nc1nc[nH]n1)c1cc(F)nc(F)c1F [Example 1-51],≥ 80
7,O=C(Nc1cccc(OC(F)(F)F)c1)c1cc(F)nc(F)c1F [Example 1-52],≥ 80
8,O=C(Nc1ccc(Cl)cc1)c1cc(F)nc(F)c1F [Example 1-54],≥ 80
9,N#Cc1ccc(NC(=O)c2cc(F)nc(F)c2F)cc1 [Example 1-55],≥ 80
10,CCOC(=O)c1ccc(NC(=O)c2cc(F)nc(F)c2F)cc1 [Example 1-56],≥ 80
11,CCOc1ccc(NC(=O)c2cc(F)nc(F)c2F)cc1 [Example 1-57],≥ 80
12,Cc1cc(NC(=O)c2cc(F)nc(F)c2F)ccc1F [Example 1-58],≥ 80
13,COc1ccc(NC(=O)c2cc(F)nc(F)c2F)cc1 [Example 1-61],≥ 80
14,COc1cc(NC(=O)c2cc(F)nc(F)c2F)ccc1C [Example 1-63],≥ 80
15,Cc1ccc(NC(=O)c2cc(F)nc(F)c2F)cc1[N+](=O)[O-] [Example 1-64],≥ 80
16,Cc1ccc(NC(=O)c2cc(F)nc(F)c2F)cc1C(F)(F)F [Example 1-65],≥ 80
17,Cc1ccc(NC(=O)c2cc(F)nc(F)c2F)cc1 [Example 1-66],≥ 80
18,O=C(Nc1ccc([N+](=O)[O-])cc1)c1cc(F)nc(F)c1F [Example 1-67],≥ 80
19,O=C(Nc1ccc(Oc2ccccc2)cc1)c1cc(F)nc(F)c1F [Example 1-68],≥ 80
20,CC(C)(C)Oc1ccc(NC(=O)c2cc(F)nc(F)c2F)cc1 [Example 1-70],≥ 80
21,CC(C)(C)c1ccc(NC(=O)c2cc(F)nc(F)c2F)cc1 [Example 1-71],≥ 80
22,Cc1cc(NC(=O)c2cc(F)nc(F)c2F)no1 [Example 1-73],≥ 80
23,Cc1cnc(NC(=O)c2cc(F)nc(F)c2F)s1 [Example 1-74],≥ 80

row,SMILES,pest or weed control at 10 µg/mL [%]
1,O=C(NCCO)c1cc(F)nc(F)c1F [Example 1-78],≥ 80
2,O=C(NCCS)c1cc(F)nc(F)c1F [Example 1-79],≥ 80
3,O=C(NC(CO)c1ccccc1)c1cc(F)nc(F)c1F (stereo not shown) [Example 1-81],≥ 80
4,CC(NC(=O)c1cc(F)nc(F)c1F)c1ccc(Cl)cc1 (stereo not shown) [Example 1-84],≥ 80
5,CC(NC(=O)c1cc(F)nc(F)c1F)c1ccccc1 (stereo not shown) [Example 1-85],≥ 80
6,O=C(NCCBr)c1cc(F)nc(F)c1F [Example 1-87],≥ 80
7,CCCNC(=O)c1cc(F)nc(F)c1F [Example 1-88],≥ 80
8,N#CCNC(=O)c1cc(F)nc(F)c1F [Example 1-91],≥ 80
9,CNC(=O)c1cc(F)nc(F)c1F [Example 1-92],≥ 80
10,CCCCCCCCNC(=O)c1cc(F)nc(F)c1F [Example 1-96],≥ 80
11,O=C(NCc1ccccc1)c1cc(NC(=O)c2cc(F)nc(F)c2F)ccc1Cl [Example 1-99],≥ 80
12,O=C(OCc1ccccc1Cl)c1cc(F)nc(F)c1F [Example 1-100],≥ 80
13,O=C(OCc1snc(Cl)c1Cl)c1cc(F)nc(F)c1F [Example 1-104],≥ 80
14,O=C(Oc1ccc(Cl)cc1)c1cc(F)nc(F)c1F [Example 1-107],≥ 80
15,N#Cc1ccc(OC(=O)c2cc(F)nc(F)c2F)cc1 [Example 1-108],≥ 80
16,COc1ccc(COC(=O)c2cc(F)nc(F)c2F)cc1 [Example 1-109],≥ 80
17,Cc1ccc(COC(=O)c2cc(F)nc(F)c2F)cc1 [Example 1-110],≥ 80
18,Cc1ccc(OC(=O)c2cc(F)nc(F)c2F)cc1 [Example 1-111],≥ 80
19,O=C(Oc1ccc([N+](=O)[O-])cc1)c1cc(F)nc(F)c1F [Example 1-112],≥ 80
20,O=C(OCc1ccccc1)c1cc(F)nc(F)c1F [Example 1-114],≥ 80
21,CC(OC(=O)c1cc(F)nc(F)c1F)C(F)(F)F (stereo not shown) [Example 1-115],≥ 80
